Measurements reported in patent US9447093B2, “3,5-diarylazaindoles as DYRK1A protein inhibitors for the treatment of cognitive deficiencies associated with Down's syndrome and with Alzheimer's disease” (Centre National De La Recherche Scientifique, priority 2012, dated 2016).
pIC50: −log10 of the molar value.

Tests used:
DYRK1A protein = target: T1, DYRK1A protein (Homo sapiens, UniProt Q13627); assay: DYRK1A activity assay (fluorescein peptide substrate, UFLC with fluorescence detection); format: biochemical; conditions: for pIC50: DYRK1A protein, ΔDYRK1A enzyme, 37° C.
T1 construct: the peptide phosphorylated by His-DYRK1A-ΔC is separated from the unphosphorylated peptide; His (N)

GSKIII beta protein = assay: In vivo phosphorylation state of GSKIII beta in brain (slot-blot); conditions: brain of TG animals (trisomy model for DYRK1A gene), intraperitoneal 1 mg/kg at t0 and t16 h, sacrifice t17-t18
Procedure: (§1) To test in vivo the efficacy of these inhibitors, the effect of the compounds according to the invention on the phosphorylation state of two DYRK1A downstream targets in signaling pathways was measured: GSKIII beta protein (FIG. 1a) and CAMKII protein (FIG. 1b).
(§2) These measurements were carried out in the brain of control animals (WT) and of animals of an animal model of trisomy for DYRK1A gene (TG).
(§3) To that end, the compounds were administered by intraperitoneal injection in the amount of 1 mg/kg at t0 then at t16 (hours) and the animals were sacrificed at t17-t18. Brain proteins were then extracted and the amounts of GSKIIIbeta, pGSKIIIbeta, CAMKII and pCAMKII proteins were measured by a slot-blot technique with suitable antibodies.
(§4) The results of these tests are presented in FIG. 1: the y-axis represents the ratio of phosphorylated protein to unphosphorylated protein measured on the untreated animals (WT and TG) and on the animals treated with the compounds according to the invention.

CAMKII protein = assay: In vivo phosphorylation state of CAMKII in brain (slot-blot); conditions: brain of TG animals (trisomy model for DYRK1A gene), intraperitoneal 1 mg/kg at t0 and t16 h, sacrifice t17-t18
Procedure: as §1, §2, §3, §4

pIC50 (DYRK1A protein) | Molecule | correction of hyperphosphorylated GSKIIIbeta (pGSK/GSK ratio) (GSKIII beta protein) | correction of hypophosphorylated CAMKII (pCAMKII/CAMKII ratio) (CAMKII protein) | IC50 values for known DYRK1A inhibitors (DYRK1A protein; validation of the test, compared with literature radioactive kinase tests)
5.44 | Oc1ccccc1-c1cnc2[nH]cc(-c3ccccc3)c2c1 [Compound A, 3-phenyl-5-(2-hydroxyphenyl)-1H-pyrrolo[2,3-b]pyridine] |  |  | 
8.03 | Oc1ccc(-c2cnc3[nH]cc(-c4ccc(O)c(F)c4)c3c2)cc1 [I′h, 3-(3-fluoro-4-hydroxyphenyl)-5-(4-hydroxyphenyl)-1H-pyrrolo[2,3-b]pyridine] |  |  | 
6.80 | Oc1ccc(-c2cnc3[nH]cc(-c4ccccc4)c3c2)cc1O [E, 3-phenyl-5-(3,4-dihydroxyphenyl)-1H-pyrrolo[2,3-b]pyridine] |  |  | 
7.64 | Oc1ccc(-c2cnc3[nH]cc(-c4ccc(O)cc4)c3c2)cc1 [Ib, 3-(4-hydroxyphenyl)-5-(4-hydroxyphenyl)-1H-pyrrolo[2,3-b]pyridine] | effective correction | return the phosphorylation level to the value observed in the control animals | 
7.38 | COc1ccc(-c2c[nH]c3ncc(-c4ccc(O)cc4)cc23)cc1F [Ic, 3-(3-fluoro-4-methoxyphenyl)-5-(4-hydroxyphenyl)-1H-pyrrolo[2,3-b]pyridine] |  |  | 
7.84 | Oc1ccc(-c2cnc3[nH]cc(-c4ccc(O)c(O)c4)c3c2)c(O)c1 [I′d, 3-(3,4-dihydroxyphenyl)-5-(2,4-dihydroxyphenyl)-1H-pyrrolo[2,3-b]pyridine] |  |  | 
6.49 | Oc1ccc(-c2cnc3[nH]cc(-c4ccccc4)c3c2)cc1 [C, 3-phenyl-5-(4-hydroxyphenyl)-1H-pyrrolo[2,3-b]pyridine] | excessive correction | do not produce a sufficient correction | 
7.41 | Oc1ccc(O)c(-c2cnc3[nH]cc(-c4ccc(O)c(O)c4)c3c2)c1 [I′e, 3-(3,4-dihydroxyphenyl)-5-(2,5-dihydroxyphenyl)-1H-pyrrolo[2,3-b]pyridine] |  |  | 
6.81 | Oc1ccc(-c2cnc3[nH]cc(-c4ccccc4)c3c2)c(O)c1 [F, 3-phenyl-5-(2,4-dihydroxyphenyl)-1H-pyrrolo[2,3-b]pyridine] |  |  | 
7.91 | Oc1ccc(-c2cnc3[nH]cc(-c4ccc(O)c(O)c4)c3c2)cc1O [I′c, 3-(3,4-dihydroxyphenyl)-5-(3,4-dihydroxyphenyl)-1H-pyrrolo[2,3-b]pyridine] | excessive correction | do not produce a sufficient correction | 
6.98 | Oc1cccc(-c2cnc3[nH]cc(-c4cccc(O)c4)c3c2)c1 [Ia, 3-(3-hydroxyphenyl)-5-(3-hydroxyphenyl)-1H-pyrrolo[2,3-b]pyridine] |  |  | 
8.52 | Oc1ccc(-c2c[nH]c3ncc(-c4ccc(O)c(O)c4)cc23)cc1 [I′b, 3-(4-hydroxyphenyl)-5-(3,4-dihydroxyphenyl)-1H-pyrrolo[2,3-b]pyridine] |  |  | 
 | epigallocatechin-3-gallate [reference compound] |  |  | Values similar to those of the literature
5.13 | c1ccc(-c2cnc3[nH]cc(-c4ccccc4)c3c2)cc1 [B, 3-phenyl-5-phenyl-1H-pyrrolo[2,3-b]pyridine] |  |  | 
7.93 | Oc1ccc(-c2c[nH]c3ncc(-c4ccc(O)cc4O)cc23)cc1 [I′a, 3-(4-hydroxyphenyl)-5-(2,4-dihydroxyphenyl)-1H-pyrrolo[2,3-b]pyridine] | effective correction | return the phosphorylation level to the value observed in the control animals | 
